Data on 1 compound can be found in US20040057908A1, “Oral compositions and use thereof” (priority 2003, published 2004).

Where “and” joins values, the source holds several entries; their conditions need not be identical. Equal entries are not always repeated. Entries after “also recorded” stand apart in the source; their conditions may differ.

Experiment [1] concerns the target T1, GTF B (Streptococcus mutans serotype c, UniProt P08987).
T1 construct: made in house; host or cells: Streptococcus milleri KSB8 (culture supernatant)
Description: GTF activity in solution, GTF B. It is filed as biochemical. Conditions: read-out: GTF B sol. % of Inhib. As for the experimental part: (§1) Glucosyltransferase activity was measured by the incorporation of [^14C-glucose] from labeled sucrose (NEN Research Products, Boston, Mass.) into glucans (Germaine et al., 1974; Venkitaraman et al., 1995). The GTF enzyme added to each sample for all assays was equivalent to the amount required to incorporate 1.0-1.5 μmol of glucose over the four hours reaction (1.0-1.5 units).
(§2) For solution assays, purified GTF B, C, D and Ss were mixed with a two-fold dilution series of the test compounds (concentration ranging from 125 to 500 μM) and incubated with [^14C-glucose]-sucrose substrate (0.2 μCi/ml) (200.0 mmol/l sucrose, 40 μmol/l dextran 9000, 0.02% sodium azide in adsorption buffer—50 mM KCl, 1.0 mM KPO4, 1.0 mM CaCl2, 0.1 mM MgCl2−pH=6.5) to reach a final concentration of 100 mmol/l sucrose (200 μl final volume). For the control, the same reaction was carried out, where ethanol:DMSO (final concentration of 7.5% and 1.25%, v/v) or ethanol (final concentration of 5%, v/v) replaced the test agent solutions. The samples were incubated 37° C. with rocking for 4 h. After incubation, ice-cold ethanol (1.0 ml) was added and the samples were stored for 18 h, 4° C. for precipitation of glucans. Radiolabeled glucan was determined by scintillation counting (Germaine et al., 1974; Venkitaraman et al., 1995).

The target of experiment [2] is T1, GTF B. Description: GTF activity adsorbed onto saliva-coated hydroxyapatite (sHA) surface, GTF B. It counts as biochemical. As for the experimental part: as §1
(§3) For surface assays, the GTFs were adsorbed to hydroxyapatite beads coated with clarified whole saliva (free of GTF activity), as detailed elsewhere (Koo et al., 2000c; Schilling and Bowen, 1988, Venkitaraman et al., 1995). The saliva-coated hydroxyapatite (sHA) beads were exposed to sufficient enzyme to saturate the surface as determined experimentally. Following the adsorption of the enzyme, the beads were washed 3 times with buffer to remove the loosely bound material and exposed to 300 μl of the two-fold dilution series of test compounds (or control) for 30 min. at the same concentrations described above. The beads were washed and exposed to 300 μl [^14C-glucose]-sucrose substrate (100.0 mmol/l sucrose, final concentration). The radiolabeled glucan formed was collected and quantified by scintillation counting (Germaine et al., 1974; Venkitaraman et al., 1995). All the solution and surface assays were done in quadruplicate in at least 3 different experiments.

The target of experiment [3] is T2, GTF C (Streptococcus mutans serotype c, UniProt P13470).
T2 construct: The supernatant was carefully collected as the source of GTF C; made in house; host or cells: Streptococcus mutans WHB 410 (endogenous gtfC; urea/Triton extract of washed cells, hydroxyapatite chromatography)
T2 sequence (P13470 35-1455): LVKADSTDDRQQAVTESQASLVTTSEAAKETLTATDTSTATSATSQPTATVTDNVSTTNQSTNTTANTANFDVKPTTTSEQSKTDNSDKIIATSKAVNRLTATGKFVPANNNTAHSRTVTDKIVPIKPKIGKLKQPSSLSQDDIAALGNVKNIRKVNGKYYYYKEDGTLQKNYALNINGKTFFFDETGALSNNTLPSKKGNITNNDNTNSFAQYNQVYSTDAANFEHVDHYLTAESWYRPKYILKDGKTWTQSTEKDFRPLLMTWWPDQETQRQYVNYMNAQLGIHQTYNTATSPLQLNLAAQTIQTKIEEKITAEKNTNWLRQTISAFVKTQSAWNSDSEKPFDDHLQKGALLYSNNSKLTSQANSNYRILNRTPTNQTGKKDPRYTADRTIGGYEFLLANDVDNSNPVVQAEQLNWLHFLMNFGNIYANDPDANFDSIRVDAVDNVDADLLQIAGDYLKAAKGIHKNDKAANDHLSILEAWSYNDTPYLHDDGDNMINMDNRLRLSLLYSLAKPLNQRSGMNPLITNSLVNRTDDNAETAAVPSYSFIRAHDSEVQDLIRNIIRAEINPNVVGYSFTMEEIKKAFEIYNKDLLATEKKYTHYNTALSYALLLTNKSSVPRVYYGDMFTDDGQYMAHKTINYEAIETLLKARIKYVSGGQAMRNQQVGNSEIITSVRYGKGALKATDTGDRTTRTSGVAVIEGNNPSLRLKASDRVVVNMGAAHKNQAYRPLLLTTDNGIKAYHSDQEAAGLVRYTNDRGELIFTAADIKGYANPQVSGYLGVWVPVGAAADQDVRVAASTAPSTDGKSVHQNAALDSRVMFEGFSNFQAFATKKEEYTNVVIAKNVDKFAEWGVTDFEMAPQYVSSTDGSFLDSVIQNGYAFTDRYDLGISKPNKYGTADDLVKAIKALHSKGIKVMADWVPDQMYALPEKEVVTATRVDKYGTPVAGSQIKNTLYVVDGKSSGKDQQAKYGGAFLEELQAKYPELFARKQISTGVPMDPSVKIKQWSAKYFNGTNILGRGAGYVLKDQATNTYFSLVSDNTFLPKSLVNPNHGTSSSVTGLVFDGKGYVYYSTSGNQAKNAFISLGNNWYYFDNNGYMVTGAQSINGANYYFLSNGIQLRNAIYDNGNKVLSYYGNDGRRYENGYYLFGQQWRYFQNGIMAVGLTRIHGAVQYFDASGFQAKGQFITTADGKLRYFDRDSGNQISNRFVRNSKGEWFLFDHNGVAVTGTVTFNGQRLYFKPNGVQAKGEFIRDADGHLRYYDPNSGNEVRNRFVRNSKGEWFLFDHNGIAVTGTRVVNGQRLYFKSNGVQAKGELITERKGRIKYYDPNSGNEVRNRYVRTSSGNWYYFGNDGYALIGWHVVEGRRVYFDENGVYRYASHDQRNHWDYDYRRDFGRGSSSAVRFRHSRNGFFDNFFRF
Description: GTF activity in solution, GTF C. It is filed as biochemical. To be noted: read-out: GTF C sol. % of Inhib. How it is done: as §1, §2

Experiment [4] addresses T3, GTF D (Streptococcus mutans serotype c, UniProt P49331).
T3 construct: made in house; host or cells: Streptococcus milleri NH5 (culture supernatant)
Description: GTF activity in solution, GTF D. It counts as biochemical. Conditions: read-out: GTF D sol. % of Inhib. How it is done:
as §1, §2

Experiment [5] deals with T4, GTF Ss (Streptococcus sanguinis, UniProt A3CLJ9). Briefly: GTF activity in solution, GTF Ss. To be noted: read-out: GTF Ss sol. % of Inhib. It is filed as biochemical, S. sanguinis. As for the experimental part: as §1, §2
For experiment [6], the target named is T4, GTF Ss. Briefly: GTF activity adsorbed onto sHA surface, GTF Ss. It counts as biochemical, S. sanguinis. As for the experimental part:
as §1, §3

In experiment [7] the test system is S. mutans UA159 and S. sobrinus 6715 biofilms. Description: Time-kill assay in 5-day-old biofilms. It counts as cell-based. To be noted: 1.33 mM (fluoride 250 ppm). As for the experimental part: Cells of mutans streptococci were grown in tryptone-yeast extract broth with addition of 1% (w/v) sucrose at 37° C. and 5% CO2. […] The killing assays were performed according to Phan et al. (2000). […] The homogenized suspension was serially diluted (10^1 to 10^4) and plated on tryptic soy agar or blood agar by means of a spiral plater (Autoplate model 3000, Spiral Biotech, Inc., Bethesda, Md). […] Killing curves were constructed by plotting log10 CFU/ml versus time over 4 h. All the assays were carried out in quadruplicate on at least 3 different occasions. Bactericidal effect was defined as a ≧3 log10 decreases in the CFU/ml from initial viable counts, at time zero. The potential for drug carry-over to produce falsely low viability counts was minimized by dilution of inocula and plating of small volumes of diluted samples (50 μl).

Experiment [8] deals with Streptococcus sobrinus 6715. Briefly: Rat caries experiment: S. sobrinus recovered from the jaws. To be noted: rats, topical twice daily, five weeks; 1.33 mM (fluoride 250 ppm); means (SD). It is filed as in vivo, Sprague Dawley rats. How it is done:
(§4) Seven litters of ten female Sprague Dawley rats aged 14 days were purchased with their dams from Charles River (Kingston, N.Y., USA). […] The experiment proceeded for five weeks, at which time the animals were killed by CO2 asphyxiation. The lower left jaw was aseptically dissected, suspended in 5.0 mL of sterile saline solution, and sonicated (three 10-second pulses with 5-second intervals at 30 watts, Branson Sonifier 450). The suspension was plated on mitis salivarius agar plus streptomycin to estimate S. sobrinus population and on blood agar to determine total cultivable flora (TCF). […] The determination of caries score was blind by codification of the jaws and was done by 1 calibrated examiner. […] The level of significance was 5%.

For experiment [9], the system named is dental caries. Briefly: Rat caries experiment: caries scores (Larson's modification of Keyes' system). It counts as in vivo, Sprague Dawley rats. Conditions: Ds and Dm levels; tt-farnesol Dm only; p<0.05. As for the experimental part:
as §4

Where [10] appears, read: read-out: GTF B surf. % of Inhib.
Where [11] appears, read: read-out: GTF Ss surf. % of Inhib.

T1 sequence (P08987 35-1476): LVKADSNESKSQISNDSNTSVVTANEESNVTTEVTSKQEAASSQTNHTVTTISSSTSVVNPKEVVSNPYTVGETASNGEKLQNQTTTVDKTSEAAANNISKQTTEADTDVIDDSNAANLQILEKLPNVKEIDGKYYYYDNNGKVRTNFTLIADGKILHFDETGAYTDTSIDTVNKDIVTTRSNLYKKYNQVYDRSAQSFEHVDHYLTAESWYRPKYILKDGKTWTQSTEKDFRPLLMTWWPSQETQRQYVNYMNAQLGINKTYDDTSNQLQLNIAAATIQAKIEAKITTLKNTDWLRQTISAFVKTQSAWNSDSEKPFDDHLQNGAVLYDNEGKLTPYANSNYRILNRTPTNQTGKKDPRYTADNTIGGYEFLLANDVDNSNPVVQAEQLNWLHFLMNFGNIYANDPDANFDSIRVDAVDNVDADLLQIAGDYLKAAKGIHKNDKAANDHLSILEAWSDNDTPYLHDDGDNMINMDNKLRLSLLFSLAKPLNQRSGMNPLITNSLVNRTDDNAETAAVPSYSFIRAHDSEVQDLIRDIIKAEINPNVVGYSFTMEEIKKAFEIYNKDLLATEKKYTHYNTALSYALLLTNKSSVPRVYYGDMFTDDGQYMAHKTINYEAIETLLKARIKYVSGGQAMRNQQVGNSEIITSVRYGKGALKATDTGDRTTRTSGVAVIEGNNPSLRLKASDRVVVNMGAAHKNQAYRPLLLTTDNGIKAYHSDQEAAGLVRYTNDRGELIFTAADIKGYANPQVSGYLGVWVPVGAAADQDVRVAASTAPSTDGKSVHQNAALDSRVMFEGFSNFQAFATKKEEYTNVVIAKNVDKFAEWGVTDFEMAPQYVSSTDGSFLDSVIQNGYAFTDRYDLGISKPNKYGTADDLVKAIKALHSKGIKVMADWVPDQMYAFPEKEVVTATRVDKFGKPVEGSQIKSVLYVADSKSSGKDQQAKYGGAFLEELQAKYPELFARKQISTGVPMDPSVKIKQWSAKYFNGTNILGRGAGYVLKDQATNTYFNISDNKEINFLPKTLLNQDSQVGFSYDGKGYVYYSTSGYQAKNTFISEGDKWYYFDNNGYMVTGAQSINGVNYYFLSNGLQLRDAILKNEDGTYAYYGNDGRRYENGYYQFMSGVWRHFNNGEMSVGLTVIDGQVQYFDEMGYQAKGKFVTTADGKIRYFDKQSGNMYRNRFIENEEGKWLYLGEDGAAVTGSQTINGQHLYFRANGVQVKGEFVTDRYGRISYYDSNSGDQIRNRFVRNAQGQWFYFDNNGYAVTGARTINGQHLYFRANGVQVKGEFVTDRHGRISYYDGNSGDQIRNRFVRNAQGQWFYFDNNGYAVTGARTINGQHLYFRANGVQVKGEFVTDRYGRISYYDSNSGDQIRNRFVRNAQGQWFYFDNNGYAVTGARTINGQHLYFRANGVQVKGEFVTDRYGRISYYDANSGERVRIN
T3 sequence (P49331 whole entry): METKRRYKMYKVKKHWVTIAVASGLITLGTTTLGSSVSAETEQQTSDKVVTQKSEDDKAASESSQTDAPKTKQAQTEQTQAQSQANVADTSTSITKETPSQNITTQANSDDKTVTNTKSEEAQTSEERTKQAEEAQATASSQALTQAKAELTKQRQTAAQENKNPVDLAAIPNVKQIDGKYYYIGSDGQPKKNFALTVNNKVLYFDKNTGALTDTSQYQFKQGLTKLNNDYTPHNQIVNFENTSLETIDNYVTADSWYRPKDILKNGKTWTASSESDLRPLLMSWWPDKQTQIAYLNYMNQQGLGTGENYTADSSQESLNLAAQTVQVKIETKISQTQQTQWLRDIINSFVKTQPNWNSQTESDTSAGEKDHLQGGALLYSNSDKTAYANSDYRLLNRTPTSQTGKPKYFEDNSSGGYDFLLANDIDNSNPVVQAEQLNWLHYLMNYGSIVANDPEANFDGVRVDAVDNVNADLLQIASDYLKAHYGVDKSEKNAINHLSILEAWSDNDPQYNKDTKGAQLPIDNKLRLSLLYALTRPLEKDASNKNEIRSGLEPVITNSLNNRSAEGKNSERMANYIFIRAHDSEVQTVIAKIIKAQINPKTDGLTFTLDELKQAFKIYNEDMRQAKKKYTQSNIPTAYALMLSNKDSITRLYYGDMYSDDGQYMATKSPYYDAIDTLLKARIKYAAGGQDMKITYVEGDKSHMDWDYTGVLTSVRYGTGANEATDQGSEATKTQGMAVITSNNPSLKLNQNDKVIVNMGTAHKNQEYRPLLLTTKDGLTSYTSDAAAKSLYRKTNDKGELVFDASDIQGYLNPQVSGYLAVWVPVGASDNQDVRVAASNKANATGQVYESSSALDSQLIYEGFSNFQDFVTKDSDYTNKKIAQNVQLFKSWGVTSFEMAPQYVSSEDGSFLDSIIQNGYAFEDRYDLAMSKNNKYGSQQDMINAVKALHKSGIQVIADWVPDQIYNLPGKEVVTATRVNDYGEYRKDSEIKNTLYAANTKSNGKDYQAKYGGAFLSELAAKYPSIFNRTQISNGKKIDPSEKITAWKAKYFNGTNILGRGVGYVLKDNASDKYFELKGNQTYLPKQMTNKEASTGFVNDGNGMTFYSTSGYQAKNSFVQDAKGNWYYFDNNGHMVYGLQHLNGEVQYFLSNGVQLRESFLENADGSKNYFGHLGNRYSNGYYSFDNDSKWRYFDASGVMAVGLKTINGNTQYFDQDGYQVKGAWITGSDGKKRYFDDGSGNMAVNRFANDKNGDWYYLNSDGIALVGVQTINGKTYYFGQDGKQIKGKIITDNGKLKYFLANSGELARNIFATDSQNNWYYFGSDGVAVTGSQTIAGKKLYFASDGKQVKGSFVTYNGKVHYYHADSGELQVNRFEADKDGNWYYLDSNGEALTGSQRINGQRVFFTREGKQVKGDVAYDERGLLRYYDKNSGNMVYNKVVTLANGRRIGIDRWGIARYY

On to `O=c1cc(-c2ccc(O)cc2)oc2cc(O)cc(O)c12` [Apigenin], for which the inhibition at 125 µM worked out at 78.3% in [1]; 31.8% in experiment [2] (setting [10]); 77.5% in experiment [3]; 70.8% in experiment [4]; 83.2% in [5]; 13.8% in experiment [6] (setting [11]). In addition, the inhibition at 250 µM in experiment [1] is 92.8%; in [2] (setting [10]) it was 40%; in experiment [3], 87.5%; in experiment [4], 90.2%; in experiment [5], 91.2%; in experiment [6] (setting [11]), 20.2%. Further, the inhibition at 500 µM in experiment [1] came to 94.3%; in [2] (setting [10]), 55.5%; in [3] it was 90.5%; in experiment [4] it was 95%; in experiment [5], 92.7%; in experiment [6] (setting [11]), 30%. The IC50 in experiment [2] (IC50 for surface-adsorbed GTF B, surface-adsorbed) was 478 µM and 474 µM; in [6] (read-out: IC50 for surface-adsorbed GTF SS, surface-adsorbed), greater than 1000 µM. In addition, the “antibacterial activity against mutans streptococci biofilms (in words)” value in experiment [7] is “devoid of antibacterial effects; also recorded: negligible antibacterial activity”. The “Infection by S. sobrinus, %” value in [8] was 40.6 (14.2)^ab %. Also, the “smooth-surface caries severity scores versus control (in words)” value in experiment [9] is recorded as “significantly lower”.

In general, IC50 refers to the concentration that gives 50% inhibition.
